Measured values taken from US11970458B1, “4,5-bis(4-bromophenyl)-1-hexyl-2-(4-nitrophenyl)-1H-imidazole as an antimicrobial compound” (KING FAISAL UNIVERSITY, priority 2023, dated 2024).

Assays:
Staphylococcus aureus = assay: antimicrobial screening by agar dilution; type: cell-based; conditions: after 10, 20, 40 and 60 minutes at all dilutions 1:100, 1:200, 1:400, 1:800
Description: (§1) The antimicrobial properties of the 4,5-bis(4-bromophenyl)-1-hexyl-2-(4-nitrophenyl)-1H-imidazole was studied by the method of agar dilution. Test solutions of each compound was prepared in concentration of 1% using dimethylformamide as a solvent then they were diluted in physiological solution to obtain the final experimental dilutions 1:100, 1:200, 1:400, 1:800. The effect of these substances were compared with furacillin in a controlled study. The testing microbes used were gram positive bacteria Staphylococcus aureus, gram negative bacteria Pseudomonas aeruginosa and Escherichia coli and Candida albicans fungi were taken. The experiments used for this survey were meat-pentonlu agar (EPA) for cultivation of bacteria and Saburo environment for fungi. Each experiment used 1 ml of test solution on each plate 500 min. Add 2 drops of emulsified with microbes feel. All experimental samples were taken from the agar after 10, 20, 40, 60 minutes in the environment on the basis of Patrk planted. Bacteria were cultivated at a temperature of 37° C. for 1 day and the mushroom was kept in a thermostat for […] at a temperature of 28° C. Then results were checked.

Candida albicans = assay: antimicrobial screening by agar dilution; type: cell-based; conditions: after 10, 20, 40 and 60 minutes at all dilutions 1:100, 1:200, 1:400, 1:800
Description: as §1

Escherichia coli = assay: antimicrobial screening by agar dilution; type: cell-based; conditions: after 10, 20, 40 and 60 minutes at all dilutions 1:100, 1:200, 1:400, 1:800
Description: as §1

Pseudomonas aeruginosa = assay: antimicrobial screening by agar dilution; type: cell-based; conditions: after 10, 20, 40 and 60 minutes at all dilutions 1:100, 1:200, 1:400, 1:800
Description: as §1

melting point: 160 to 161 °C
Structure (SMILES): CCCCCCn1c(-c2ccc([N+](=O)[O-])cc2)nc(-c2ccc(Br)cc2)c1-c1ccc(Br)cc1 [4,5-bis(4-bromophenyl)-1-hexyl-2-(4-nitrophenyl)-1H-imidazole]
inhibition activity (Staphylococcus aureus): highest inhibition activity
inhibition activity (Candida albicans): highest inhibition activity
inhibition activity (Escherichia coli): highest inhibition activity
inhibition activity (Pseudomonas aeruginosa): highest inhibition activity
